In publication PMC8956739, “A synthetic lipopeptide targeting top-priority multidrug-resistant Gram-negative pathogens” (Nature Communications, 2022):
Values joined by “and” are separate entries in the source; they are usually repeats but may differ in a detail not shown here. Equal values may be shown once. Residues, ends and D or L forms follow the SMILES beside them.

How the values were obtained:
[1] = system: MDR clinical isolates of Enterobacterales (n = 177, 152 carbapenem-resistant); assay: Extended MIC screening, MDR clinical isolates; assay type: cell-based
Protocol: MICs were determined in cation-adjusted Mueller–Hinton broth (CaMHB) by the broth micro-dilution method against ATCC strains and clinical isolates. MICs in the presence of Survanta® were determined as described above against P. aeruginosa ATCC 27853. In the 100 μL of fresh CaMHB containing polymyxins, 10% Survanta® (v/v, 2.5 mg/mL phospholipids) was added. MICs in the presence and absence of Survanta® were compared to determine the effect of binding to lung surfactant on the antibacterial activity of polymyxins.

A. baumannii AB5075 [2] = assay: In vitro passaging, emergence of resistance; assay type: cell-based, Acinetobacter baumannii
Protocol: Log-phase cultures (OD600 = 0.5, ~10^8 CFU/mL) of A. baumannii AB5075 were inoculated (1:10, v/v) in 200 μL fresh CaMHB (cation-adjusted Mueller–Hinton broth) containing 2, 8 and 16 μg/mL polymyxin B, colistin, F287, and F365 in a 96-well microplate with 4 biological replicates. The cultures were incubated at 37 °C for 12 h before the next dilution (1:10, v/v) with fresh CaMHB. Successive subculturing was conducted for 7 days.

A. baumannii AB5075 [3] = assay: Transcriptomic analysis (RNA-Seq) of bacteria; assay type: cell-based, Acinetobacter baumannii; settings: H vs Cont
[4] = 1h, RNA-Seq A. baumannii AB5075
[5] = 1h, pathway Fatty Acid and Lipid Degradation

With CC[C@@H]1NC(=O)[C@@H](CC(C)C)NC(=O)[C@H](CCN)NC(=O)[C@@H](NC(=O)[C@H](CN)NC(=O)[C@@H](NC(=O)[C@H](CCN)NC(=O)c2ccc(Cl)cc2Cl)[C@@H](C)O)CCNC(=O)[C@H]([C@@H](C)O)NC(=O)[C@H](CCN)NC(=O)[C@H](CCN)NC1=O [Lipopeptide F365] (HELM PEPTIDE1{[O=C(c1ccc(Cl)cc1Cl)[*:2]].[Dab].T.[NC[C@H](N[*:1])C(=O)[*:2]].[Dab].[Dab].[dL].[Abu].[Dab].[Dab].T}$PEPTIDE1,PEPTIDE1,5:R3-11:R2$$$V2.0) the Number of isolates ([1]; isolates with MIC 0.05 µg/mL) was 0, the Number of isolates ([1]; isolates with MIC 0.125 µg/mL) was 9 and the Number of isolates ([1]; isolates with MIC 0.25 µg/mL) was 68. For the same compound, the Number of isolates ([1]; isolates with MIC 0.5 µg/mL) was 72, the Number of isolates ([1]; isolates with MIC 1 µg/mL) was 5 and the Number of isolates ([1]; isolates with MIC 2 µg/mL) was 1. It also gave a Number of isolates ([1]; isolates with MIC 4 µg/mL) of 2, a Number of isolates ([1]; isolates with MIC 8 µg/mL) of 0 and a Number of isolates ([1]; isolates with MIC 16 µg/mL) of 5. For the same compound, the Number of isolates ([1]; isolates with MIC 32 µg/mL) was 2, the Number of isolates ([1]; isolates with MIC 64 µg/mL) was 4 and the Number of isolates ([1]; isolates with MIC >64 µg/mL) was 6. For the same compound, the OD600 (A. baumannii AB5075 [2]; 8 ug/mL, time 0 h, passage 0, replicates rep1-rep4, raw OD600 (blank OD600 0.125333)) was 0.207 and 0.177 and 0.165 and 0.164, the OD600 (A. baumannii AB5075 [2]; 8 ug/mL, time 12 h, passage 1, replicates rep1-rep4, raw OD600 (blank OD600 0.114667)) was 0.193 and 0.169 and 0.147 and 0.152 and the OD600 (A. baumannii AB5075 [2]; 8 ug/mL, time 24 h, passage 2, replicates rep1-rep4, raw OD600 (blank OD600 0.0956667)) was 0.091 and 0.092 and 0.09. The OD600 (A. baumannii AB5075 [2]; 8 ug/mL, time 36 h, passage 3, replicates rep1-rep4, raw OD600 (blank OD600 0.088)) was 0.091 and 0.09 and 0.092, the OD600 (A. baumannii AB5075 [2]; 8 ug/mL, time 48 h, passage 4, replicates rep1-rep4, raw OD600 (blank OD600 0.104667)) was 0.091 and 0.094 and 0.101 and the OD600 (A. baumannii AB5075 [2]; 8 ug/mL, time 60 h, passage 5, replicates rep1-rep4, raw OD600 (blank OD600 0.122333)) was 0.112 and 0.116 and 0.106 and 0.123. The OD600 (A. baumannii AB5075 [2]; 8 ug/mL, time 72 h, passage 6, replicates rep1-rep4, raw OD600 (blank OD600 0.095)) was 0.092 and 0.085 and 0.096, the OD600 (A. baumannii AB5075 [2]; 8 ug/mL, time 84 h, passage 7, replicates rep1-rep4, raw OD600 (blank OD600 0.091)) was 0.089 and 0.091 and 0.092 and 0.093 and the OD600 (A. baumannii AB5075 [2]; 8 ug/mL, time 96 h, passage 8, replicates rep1-rep4, raw OD600 (blank OD600 0.0953333)) was 0.09 and 0.092 and 0.097 and 0.093. The OD600 (A. baumannii AB5075 [2]; 8 ug/mL, time 108 h, passage 9, replicates rep1-rep4, raw OD600 (blank OD600 0.100667)) was 0.111 and 0.118 and 0.121 and 0.105, the OD600 (A. baumannii AB5075 [2]; 8 ug/mL, time 120 h, passage 10, replicates rep1-rep4, raw OD600 (blank OD600 0.0983333)) was 0.118 and 0.132 and 0.121 and 0.13 and the OD600 (A. baumannii AB5075 [2]; 8 ug/mL, time 132 h, passage 11, replicates rep1-rep4, raw OD600 (blank OD600 0.0843333)) was 0.12 and 0.124 and 0.123 and 0.117. The OD600 (A. baumannii AB5075 [2]; 8 ug/mL, time 144 h, passage 12, replicates rep1-rep4, raw OD600 (blank OD600 0.091)) was 0.126 and 0.122 and 0.125 and 0.13, the OD600 (A. baumannii AB5075 [2]; 8 ug/mL, time 156 h, passage 13, replicates rep1-rep4, raw OD600 (blank OD600 0.129)) was 0.117 and 0.116 and 0.13 and 0.112 and the OD600 (A. baumannii AB5075 [2]; 8 ug/mL, time 168 h, passage 14, replicates rep1-rep4, raw OD600 (blank OD600 0.101)) was 0.095 and 0.092. The “time to emergence of resistance” value (A. baumannii AB5075 [2]; 4× MIC, 7-day passaging) was at most 3 days, the “growth over 7 days” value (A. baumannii AB5075 [2]; 32× MIC) was “No growth” and the OD600 (A. baumannii AB5075 [2]; in vitro passaging, concentration 8 ug/mL, time 168 h, passage 14, individual replicates rep1-rep4, not blank-subtracted (blank OD600 0.101)) was 0.093 and 0.094. For the same compound, the “logFC (Differential gene expression for all genes), Geneid ABUW_RS00005” value (A. baumannii AB5075 [3]; [4]) was 0.01563, the “logFC (Differential gene expression for all genes), Geneid ABUW_RS00020” value (A. baumannii AB5075 [3]; [4]) was 0.4229 and the “logFC (Fold change), gene ABUW_RS00010” value (A. baumannii AB5075 [3]; [4]) was 0.4611. For the same compound, the “logFC (Fold change), gene ABUW_RS00030” value (A. baumannii AB5075 [3]; [4]) was -0.6384, the “logFC (Fold change), gene ABUW_RS00035” value (A. baumannii AB5075 [3]; [4]) was 1.28 and the “logFC (Fold change), gene recF (ABUW_RS00015)” value (A. baumannii AB5075 [3]; [4]) was -0.2583. For the same compound, the “log2FC, gene ABUW_RS01945 (acyl-CoA thioesterase II)” value (A. baumannii AB5075 [3]; [5]) was 0.05276, the “log2FC, gene ABUW_RS02545 (acyl-CoA thioesterase)” value (A. baumannii AB5075 [3]; [5]) was 1.462 and the “log2FC, gene ABUW_RS05045 (acyl-CoA thioesterase)” value (A. baumannii AB5075 [3]; [5]) was 0.342. For the same compound, the “log2FC, gene ABUW_RS17575 (acyl-CoA thioesterase)” value (A. baumannii AB5075 [3]; [5]) was -0.4502 and the “logFC (Differential gene expression for all genes), Geneid ABUW_RS00005” value (A. baumannii AB5075 [3]; 4h, RNA-Seq A. baumannii AB5075) was -0.1188.
